{"source": "paper PMC9820316", "about": "“Novel Arylpiperazine Derivatives of Salicylamide with α1-Adrenolytic Properties Showed Antiarrhythmic and Hypotensive Properties in Rats” (International Journal of Molecular Sciences, 2022)", "key": {"α1-adrenergic receptors": {"target": "α1-adrenergic receptors", "assay": "α1-adrenoceptor radioligand binding assay ([3H]-prazosin, rat cortex)", "conditions": "rat cortex tissue, mean ± SEM", "in_short": "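Rat cerebral cortex membranes in 50 mM Tris-HCl pH 7.6, with 7–8 compound concentrations in duplicate. Nonspecific binding defined by 10 μM phentolamine for [3H]-prazosin (α1) or 10 μM clonidine for [3H]-clonidine (α2). Filtration and scintillation counting; Ki calculated.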"}, "α2-adrenergic receptors": {"target": "α2-adrenergic receptors", "assay": "α2-adrenoceptor radioligand binding assay ([3H]-clonidine, rat cortex)", "conditions": "rat cortex tissue, mean ± SEM, n.a. = did not bind at 10^−5 M", "experimental": "The α1- and α2-adrenoceptor radioligand binding assays were performed on the rat cerebral cortex using previously described methods. […] The brains were homogenized using the ULTRA-TURRAX homogenizer in 10 mL of an ice-cold 50 mM Tris-HCl buffer (pH 7.6). The homogenates were centrifuged at 20,000× g for 20 min (0–4 °C). Subsequently, the cell pellet was resuspended in the Tris–HCl buffer and centrifuged again. Radioligand binding assays were carried out in plates (MultiScreen/Millipore). The final incubation mixture, with a volume of 300 μL, consisted of 240 μL of the tissue suspension, 30 μL of the radioligand solution, and 30 μL of the buffer containing 7–8 concentrations of the studied compounds. In order to measure the unspecific binding, 10 μM phentolamine (for [^3H]-prazosin) or 10 μM clonidine (for [^3H]-clonidine) were utilized. The incubation was completed by rapid filtration through Whatman GF/C filters using a vacuum manifold (Millipore). The filters were then washed twice with the assay buffer and placed in scintillation vials with a liquid scintillation cocktail. Radioactivity was measured in a WALLAC 1409 DSA liquid scintillation counter (Perkin Elmer, USA). All the assays were performed in duplicates, and the inhibitory constants (Ki) were calculated."}, "[1]": {"tested_on": "adrenaline-induced arrhythmia model in rats", "assay": "Prophylactic antiarrhythmic activity in adrenaline-induced arrhythmia", "assay_type": "in vivo, rat", "conditions": "for Blocks / Bradycardia / Extrasystoles / Mortality: number of animals with event"}, "[2]": {"tested_on": "calcium chloride-induced arrhythmia model in rats", "assay": "Prophylactic antiarrhythmic activity in calcium chloride-induced arrhythmia", "assay_type": "in vivo, rat", "conditions": "5 mg/kg iv 15 min before calcium chloride 140 mg/kg; number of animals with event"}, "[3]": {"tested_on": "aconitine-induced arrhythmia model in rats", "assay": "Prophylactic antiarrhythmic activity in aconitine-induced arrhythmia", "assay_type": "in vivo, rat", "conditions": "5 mg/kg iv 15 min before aconitine 20 μg/kg; number of animals with event"}, "normotensive rats": {"tested_on": "normotensive rats", "assay": "Influence on blood pressure in the normotensive rats", "assay_type": "in vivo, rat", "conditions": "for DBP—diastolic blood pressure / SBP—systolic blood pressure: mean ± SD", "experimental": "The experiment was performed according to the method described earlier. Normotensive Wistar rats were anesthetized with thiopental (75 mg/kg ip). The right carotid artery was cannulated with a polyethylene tube filled with heparin solution, using a Datamax apparatus (Columbus Instruments, Columbus, OH, USA). After 15 min of the stabilization period, the studied compounds were administered iv, and their effect on systolic and diastolic blood pressure was evaluated (Figure 4A)."}, "[4]": {"tested_on": "pressor response to methoxamine in rats", "assay": "Influence on blood vasopressor response to methoxamine in rats", "assay_type": "in vivo, rat", "conditions": "2.5 mg/kg iv, methoxamine 150 μg/kg before and 5 min after compound", "in_short": "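Anaesthetised (thiopental 75 mg/kg ip) normotensive Wistar rats, carotid artery cannulated. Pressor response to methoxamine (150 µg/kg, iv) recorded before and 5 min after test compound, given at its lowest hypotensive dose, after 15-min stabilisation.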"}, "[5]": {"tested_on": "adrenaline-induced arrhythmia model in rats", "assay": "Therapeutic antiarrhythmic activity in adrenaline-induced arrhythmia", "conditions": "5 mg/kg iv immediately after adrenaline 20 µg/kg; number of animals with event"}, "[6]": {"conditions": "0.25 mg/kg iv 15 min before adrenaline 20 μg/kg"}, "[7]": {"conditions": "0.5 mg/kg iv 15 min before adrenaline 20 μg/kg"}, "[8]": {"conditions": "1 mg/kg iv 15 min before adrenaline 20 μg/kg"}, "[9]": {"conditions": "1.0 mg/kg iv, 0 min (before administration)"}, "[10]": {"conditions": "2.5 mg/kg iv, 0 min (before administration)"}}, "note": "Marks after values point to notes of the source that are not given here."}
{"smiles": "Cl.NC(=O)c1ccccc1OCCCCCN1CCN(c2cccc(Cl)c2)CC1", "note": "[JJGW02, 2-{5-[4-(3-chlorophenyl)piperazin-1-ylo]pentoxy}benzamide hydrochloride]", "values": [{"measurement": "Adrenergic Receptors—pKi α1", "setting": "α1-adrenergic receptors", "value": "8.33 ± 0.02"}, {"measurement": "Adrenergic Receptors—pKi α2", "setting": "α2-adrenergic receptors", "value": "6.20 ± 0.02"}, {"measurement": "Blocks", "setting": "[1]; [6]", "value": "5/6"}, {"measurement": "Bradycardia", "setting": "[1]; [6]", "value": "5/6"}, {"measurement": "Extrasystoles", "setting": "[1]; [6]", "value": "5/6"}, {"measurement": "Mortality", "setting": "[1]; [6]", "value": "3/6"}, {"measurement": "Blocks", "setting": "[1]; [7]", "value": "6/6"}, {"measurement": "Bradycardia", "setting": "[1]; [7]", "value": "5/6"}, {"measurement": "Extrasystoles", "setting": "[1]; [7]", "value": "5/6"}, {"measurement": "Mortality", "setting": "[1]; [7]", "value": "0/6"}, {"measurement": "Blocks", "setting": "[1]; [8]", "value": "5/6"}, {"measurement": "Bradycardia", "setting": "[1]; [8]", "value": "4/6"}, {"measurement": "Extrasystoles", "setting": "[1]; [8]", "value": "5/6"}, {"measurement": "Mortality", "setting": "[1]; [8]", "value": "1/6"}, {"measurement": "ED50", "setting": "[1]; prophylactic, iv 15 min before adrenaline 20 μg/kg, confidence limits in brackets (Litchfield and Wilcoxon)", "value": "0.45 (0.11–1.77) mg/kg"}, {"measurement": "Blocks", "setting": "[2]", "value": "5/6"}, {"measurement": "Bradycardia", "setting": "[2]", "value": "6/6"}, {"measurement": "Extrasystoles", "setting": "[2]", "value": "5/6"}, {"measurement": "Fibrillations", "setting": "[2]", "value": "4/6"}, {"measurement": "Mortality", "setting": "[2]", "value": "6/6"}, {"measurement": "Blocks", "setting": "[3]", "value": "6/6"}, {"measurement": "Bradycardia", "setting": "[3]", "value": "6/6"}, {"measurement": "Extrasystoles", "setting": "[3]", "value": "6/6"}, {"measurement": "Fibrillations", "setting": "[3]", "value": "6/6"}, {"measurement": "Mortality", "setting": "[3]", "value": "6/6"}, {"measurement": "DBP—diastolic blood pressure", "setting": "normotensive rats; [9]", "value": "87.7 ± 14.9", "unit": "mmHg"}, {"measurement": "SBP—systolic blood pressure", "setting": "normotensive rats; [9]", "value": "118.0 ± 10.5", "unit": "mmHg"}, {"measurement": "DBP—diastolic blood pressure", "setting": "normotensive rats; 1.0 mg/kg iv, 5 min", "value": "82.7 ± 16.0", "unit": "mmHg"}, {"measurement": "SBP—systolic blood pressure", "setting": "normotensive rats; 1.0 mg/kg iv, 5 min", "value": "113.7 ± 8.7", "unit": "mmHg"}, {"measurement": "DBP—diastolic blood pressure", "setting": "normotensive rats; 1.0 mg/kg iv, 10 min", "value": "83.3 ± 10.3", "unit": "mmHg"}, {"measurement": "SBP—systolic blood pressure", "setting": "normotensive rats; 1.0 mg/kg iv, 10 min", "value": "111.2 ± 6.4", "unit": "mmHg"}, {"measurement": "DBP—diastolic blood pressure", "setting": "normotensive rats; 1.0 mg/kg iv, 20 min", "value": "80.0 ± 14.1", "unit": "mmHg"}, {"measurement": "SBP—systolic blood pressure", "setting": "normotensive rats; 1.0 mg/kg iv, 20 min", "value": "109.7 ± 9.1", "unit": "mmHg"}, {"measurement": "DBP—diastolic blood pressure", "setting": "normotensive rats; 1.0 mg/kg iv, 30 min", "value": "73.7 ± 10.6", "unit": "mmHg"}, {"measurement": "SBP—systolic blood pressure", "setting": "normotensive rats; 1.0 mg/kg iv, 30 min", "value": "105.7 ± 7.5", "unit": "mmHg"}, {"measurement": "DBP—diastolic blood pressure", "setting": "normotensive rats; 1.0 mg/kg iv, 40 min", "value": "75.0 ± 13.2", "unit": "mmHg"}, {"measurement": "SBP—systolic blood pressure", "setting": "normotensive rats; 1.0 mg/kg iv, 40 min", "value": "107.7 ± 11.5", "unit": "mmHg"}, {"measurement": "DBP—diastolic blood pressure", "setting": "normotensive rats; 1.0 mg/kg iv, 50 min", "value": "73.7 ± 13.9", "unit": "mmHg"}, {"measurement": "SBP—systolic blood pressure", "setting": "normotensive rats; 1.0 mg/kg iv, 50 min", "value": "108.7 ± 12.9", "unit": "mmHg"}, {"measurement": "DBP—diastolic blood pressure", "setting": "normotensive rats; 1.0 mg/kg iv, 60 min", "value": "76.7 ± 19.2", "unit": "mmHg"}, {"measurement": "SBP—systolic blood pressure", "setting": "normotensive rats; 1.0 mg/kg iv, 60 min", "value": "111.0 ± 18.0", "unit": "mmHg"}, {"measurement": "DBP—diastolic blood pressure", "setting": "normotensive rats; [10]", "value": "84.8 ± 12.1", "unit": "mmHg"}, {"measurement": "SBP—systolic blood pressure", "setting": "normotensive rats; [10]", "value": "114.3 ± 15.7", "unit": "mmHg"}, {"measurement": "DBP—diastolic blood pressure", "setting": "normotensive rats; 2.5 mg/kg iv, 5 min", "value": "72.0 ± 9.4 ^c mmHg"}, {"measurement": "SBP—systolic blood pressure", "setting": "normotensive rats; 2.5 mg/kg iv, 5 min", "value": "103.2 ± 13.0 ^c mmHg"}, {"measurement": "DBP—diastolic blood pressure", "setting": "normotensive rats; 2.5 mg/kg iv, 10 min", "value": "72.8 ± 11.6 ^b mmHg"}, {"measurement": "SBP—systolic blood pressure", "setting": "normotensive rats; 2.5 mg/kg iv, 10 min", "value": "104.2 ± 13.2 ^b mmHg"}, {"measurement": "DBP—diastolic blood pressure", "setting": "normotensive rats; 2.5 mg/kg iv, 20 min", "value": "73.0 ± 9.6 ^b mmHg"}, {"measurement": "SBP—systolic blood pressure", "setting": "normotensive rats; 2.5 mg/kg iv, 20 min", "value": "102.8 ± 13.4 ^b mmHg"}, {"measurement": "DBP—diastolic blood pressure", "setting": "normotensive rats; 2.5 mg/kg iv, 30 min", "value": "72.3 ± 8.1 ^a mmHg"}, {"measurement": "SBP—systolic blood pressure", "setting": "normotensive rats; 2.5 mg/kg iv, 30 min", "value": "103.7 ± 10.8 ^a mmHg"}, {"measurement": "DBP—diastolic blood pressure", "setting": "normotensive rats; 2.5 mg/kg iv, 40 min", "value": "73.8 ± 9.4 ^a mmHg"}, {"measurement": "SBP—systolic blood pressure", "setting": "normotensive rats; 2.5 mg/kg iv, 40 min", "value": "106.5 ± 10.6", "unit": "mmHg"}, {"measurement": "DBP—diastolic blood pressure", "setting": "normotensive rats; 2.5 mg/kg iv, 50 min", "value": "73.7 ± 8.7", "unit": "mmHg"}, {"measurement": "SBP—systolic blood pressure", "setting": "normotensive rats; 2.5 mg/kg iv, 50 min", "value": "103.2 ± 9.4 ^b mmHg"}, {"measurement": "DBP—diastolic blood pressure", "setting": "normotensive rats; 2.5 mg/kg iv, 60 min", "value": "73.7 ± 7.9 ^a mmHg"}, {"measurement": "SBP—systolic blood pressure", "setting": "normotensive rats; 2.5 mg/kg iv, 60 min", "value": "105.2 ± 9.7 ^a mmHg"}, {"measurement": "decrease of the systolic blood pressure", "setting": "normotensive rats; 2.5 mg/kg iv, between the 5th and 30th min and between the 50th and 60th min", "value": "8–10%"}, {"measurement": "decrease of the diastolic blood pressure", "setting": "normotensive rats; 2.5 mg/kg iv, between the 5th to 40th min and in the 60th min", "value": "13–15%"}, {"measurement": "attenuation of the methoxamine pressor response", "setting": "[4]", "value": 100, "unit": "%"}, {"measurement": "Blocks", "setting": "[5]", "value": "1/6"}, {"measurement": "Bradycardia", "setting": "[5]", "value": "2/6"}, {"measurement": "Mortality", "setting": "[5]", "value": "1/6"}]}
